Counter-ions that a name gives are not always drawn. Like-named read-outs stand apart in the source and are kept apart here.
How the values were obtained:
MDBK line = assay: MTT Cell Proliferation Assay, MDBK cells; assay type: cell-based, bovine; conditions: MDBK cells; for IC50: Bos taurus, MDBK
From the text: (§1) The following example describes the MTT Cell Proliferation Assay.
(§2) The MTT Cell Proliferation Assay is a colorimetric assay system that measures the reduction of the tetrazolium salt MTT (3-(4,5-dimethylthiazol-2-yl)-2,5-diphenyltetrazolium bromide) into insoluble formazan crystals, produced by the mitochondria of viable cells. […] The color can then be quantified by spectrophotometric means. Among the applications for the method are drug sensitivity, cytotoxicity, response to growth factors, and cell activation. The reduction of tetrazolium salts is now recognized as a safe, accurate alternative to radiometric testing.
(§3) Two replicates on each cell plate and 2 duplicate plates gave 4 individual replicates of each concentration, in each cell line. Concentrations were diluted in 100% DMSO from 25 mM stocks.
(§4) Twelve 96 well plates of each cell line were plated. Plating was done by dislodging cells as in passage protocol, counting on a hemocytometer, re-suspending in standard growth media, and plating using a multichannel pippetor.
(§5) 16 μl of 25 mM stock+34 μl DMSO=8 mM starting concentrations, and serial diluted as with test compounds in same plate. […] Two replicates of each concentrations was run on each cell plate. All compound addition and cell treatments were done using aseptic technique under a laminar flow aseptic hood.
(§6) Control: 0.5% DMSO in treatment media was used as the control.
(§7) MTT dye (Thiazolyl Blue Tetrazolium Bromide, Sigma cat #M5655) stock was prepared in bulk and stored at 4° C. for use: 5 mgs/ml sterile PDS, shielded from light. 4 ul of this stock per 100 uls treatment media per well was used.
(§8) Plates were incubated overnight prior to treatment, with treatment day=Day 0. Compound treatments were prepared prior to washing cells to minimize time cells were dry at room temperature after final aspiration. Compounds were diluted in 100% DMSO in 96 well polypropylene plates: 40 μl 25 mM stock+10 μl DMSO=20 mM; 20 μl of 20 mM+30 μl DMSO=8 mM; 20 μl of 8 mM+30 μl DMSO=3.2 mM; 20 μl of 3.2 mM+30 μl DMSO=1.3 mM; 20 μl of 1.3 mM+30 μl DMSO=0.51 mM.
(§9) 5.0 μl/ml were added to treatment media, in sterile, 2.2 ml deep well plates=0.5% dmso final. Ten μl of each dmso concentration was added to 2.0 ml of treatment media and then mixed using a 1200 μl multichannel pipettor. Cell plates were treated from the deep well plates. Treatment media was standard growth media containing 0.5% FBS and standard additions. This reduced FBS concentration allowed for a slower growth rate in cells.
(§10) Media was aspirated from cell plates, and washed with 200 μl/well sterile PBS. Aspirated PBS wash, and cell plates were treated with 200 μl of compound/treatment media per well, and incubated at 37° C., 5% CO2 for 3 days.
(§11) Prior to harvesting, visual observations were made under an inverted microscope. Plates were harvested by: aspirating the growth media; adding back MTT dye/100 μl treatment media; and incubating plates at 37° C. for 1 hour. MTT dye was aspirated. 100 μl/well dmso was added, and then shaken on a Bellco plate shaker for 5 minutes, at 4.5 setting.
(§12) Plates were read in a Tecan Sunrize UV plate reader, at 560 nm. Settings: Read mode, Outside Normal 2 sec; Shake settle time 3 sec. Data is reported as % inhibition, calculated for individual plates using control values from that plate.

[1] = tested on: epithelial carcinoma A431 cell line; assay: MTT Cell Proliferation Assay, A431 cells; assay type: cell-based; conditions: for IC50: Homo sapiens; for MTT Assay IC50(A431/MDBK): ratio in parentheses: ratio MDBK IC50 / A431 IC50 (selectivity)
From the text: as §1, §2, §3, §4, §5, §6, §7, §8, §9, §10, §11, §12

EGFR = molecular target: T1, EGFR (Homo sapiens, UniProt P00533); assay: EGFR in-cell Western (ICW) screening protocol (EGFR inhibition assay); assay type: cell-based; set-up: ICW 1 / ICW 2 / ICW Avg: unit not given here; conditions: ICW assay; for ICW Avg: average of runs 1 and 2; for ICW 1: run 1; for ICW 2: run 2
T1 construct: host or cells: A431
Outline: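 In-cell Western read-out: fixed A431 cells were co-stained for total EGFR and phospho-EGFR (Tyr1173; some runs Tyr1045). Before fixation, cells were serum-starved for 2 h, exposed to compound for 4 h, then given EGF for 10 min, usually at 10 ng/ml final (6.6 or 12.5 ng/ml in some runs).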

[2] = second value of cell, read-out: MTT Assay IC50(A431/MDBK): MDBK
[3] = A-431, A431 cells, first value of cell, read-out: MTT Assay IC50(A431/MDBK): A431

T1 sequence (P00533 25-1210): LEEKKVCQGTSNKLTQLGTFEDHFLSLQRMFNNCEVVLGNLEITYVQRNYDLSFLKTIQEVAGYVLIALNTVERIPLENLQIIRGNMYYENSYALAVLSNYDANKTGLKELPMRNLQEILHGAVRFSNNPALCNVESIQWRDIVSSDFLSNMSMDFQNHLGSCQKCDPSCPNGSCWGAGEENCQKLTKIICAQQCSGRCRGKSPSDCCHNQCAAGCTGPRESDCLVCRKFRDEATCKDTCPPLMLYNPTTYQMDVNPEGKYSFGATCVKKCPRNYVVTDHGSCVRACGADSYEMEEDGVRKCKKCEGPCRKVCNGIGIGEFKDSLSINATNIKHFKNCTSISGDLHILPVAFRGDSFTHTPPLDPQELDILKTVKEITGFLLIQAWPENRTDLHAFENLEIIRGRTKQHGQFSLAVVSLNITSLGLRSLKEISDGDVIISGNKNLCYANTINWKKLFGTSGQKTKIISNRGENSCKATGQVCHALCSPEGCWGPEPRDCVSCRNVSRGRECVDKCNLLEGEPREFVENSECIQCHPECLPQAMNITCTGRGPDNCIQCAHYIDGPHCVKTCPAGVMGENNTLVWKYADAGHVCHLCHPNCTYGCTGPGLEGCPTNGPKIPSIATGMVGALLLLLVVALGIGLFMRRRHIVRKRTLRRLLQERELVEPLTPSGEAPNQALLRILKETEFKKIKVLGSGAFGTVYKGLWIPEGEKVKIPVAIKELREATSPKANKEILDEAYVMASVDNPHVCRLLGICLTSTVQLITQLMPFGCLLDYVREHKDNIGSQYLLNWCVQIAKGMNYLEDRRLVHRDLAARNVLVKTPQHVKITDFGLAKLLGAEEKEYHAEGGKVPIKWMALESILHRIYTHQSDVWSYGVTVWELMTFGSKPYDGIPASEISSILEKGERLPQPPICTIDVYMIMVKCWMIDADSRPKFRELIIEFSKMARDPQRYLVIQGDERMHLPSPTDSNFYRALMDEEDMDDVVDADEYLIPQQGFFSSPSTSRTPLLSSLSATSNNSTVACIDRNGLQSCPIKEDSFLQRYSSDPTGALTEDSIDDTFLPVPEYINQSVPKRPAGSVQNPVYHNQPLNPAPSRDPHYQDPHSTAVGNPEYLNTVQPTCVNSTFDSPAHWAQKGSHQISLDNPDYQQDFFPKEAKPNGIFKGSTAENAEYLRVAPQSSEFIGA

## CCc1ccc2nc(Nc3ncc4c(n3)CC(c3cccc(Cl)c3)CC4=O)nc(C)c2c1 (stereo not shown) [11680 + TFA]
MDBK line; [2]
  IC50: 17.4 µM
[1]; [3]
  IC50: 21.9 µM
[1]
  MTT Assay IC50(A431/MDBK): ratio in parentheses: 0.80
EGFR
  ICW Avg: 27.24
  ICW 1: 32.59
  ICW 2: 21.89

## Cc1cc2nc(Nc3ncc4c(n3)CC(c3cccs3)CC4=O)nc(C)c2cc1C (stereo not shown) [11681 + TFA]
MDBK line; [2]
  IC50: 4.08 µM
[1]; [3]
  IC50: 5.47 µM
[1]
  MTT Assay IC50(A431/MDBK): ratio in parentheses: 0.75
EGFR
  ICW Avg: 29.86
  ICW 1: 30.46
  ICW 2: 29.26

## O=c1[nH]c(Nc2nc(-c3ccccc3)c3cc(Cl)ccc3n2)nc2ccccc12 [11706 + TFA]
MDBK line; [2]
  IC50: 25.4 µM
[1]; [3]
  IC50: 17.6 µM
[1]
  MTT Assay IC50(A431/MDBK): ratio in parentheses: 1.45
EGFR
  ICW Avg: 34.32
  ICW 1: 37.65
  ICW 2: 30.99

## Cc1ccc(SCc2cc(=O)[nH]c(Nc3nc(C)c4cccc(C)c4n3)n2)cc1 [11707 + TFA]
MDBK line; second value of cell
  MTT Assay IC50(A431/MDBK): MDBK: non-convergent
[1]; [3]
  IC50: 15.7 µM
EGFR
  ICW Avg: 40.51
  ICW 1: 43.70
  ICW 2: 37.31

## Cc1ccc2c(C)nc(Nc3nc(C)c(CCC(C)C)c(=O)[nH]3)nc2c1 [11712 + TFA]
MDBK line; [2]
  IC50: 17.3 µM
[1]; [3]
  IC50: 18.7 µM
[1]
  MTT Assay IC50(A431/MDBK): ratio in parentheses: 0.92
EGFR
  ICW Avg: 39.53
  ICW 1: 32.96
  ICW 2: 46.11

## Cc1ccc(SCc2cc(=O)[nH]c(Nc3nc(C)c4cc(C)cc(C)c4n3)n2)cc1 [11727 + TFA]
MDBK line; [2]
  IC50: 16.1 µM
[1]; [3]
  IC50: 35.1 µM
[1]
  MTT Assay IC50(A431/MDBK): ratio in parentheses: 0.46
EGFR
  ICW Avg: 31.05
  ICW 1: 37.00
  ICW 2: 25.09

## CCCCCc1c(C)nc(Nc2nc(C)c3ccc(C)cc3n2)[nH]c1=O [11730 + TFA]
MDBK line; [2]
  IC50: 10.1 µM
[1]; [3]
  IC50: 14.5 µM
[1]
  MTT Assay IC50(A431/MDBK): ratio in parentheses: 0.69
EGFR
  ICW Avg: 38.91
  ICW 1: 47.15
  ICW 2: 30.67

## COc1ccc2nc(Nc3nc(C)c(Cc4cccc(Cl)c4)c(=O)[nH]3)nc(C)c2c1 [11742 + TFA]
MDBK line; second value of cell
  MTT Assay IC50(A431/MDBK): MDBK: non-convergent
[1]; [3]
  IC50: 16.1 µM
EGFR
  ICW Avg: 35.74
  ICW 1: 33.84
  ICW 2: 37.63

## COc1ccccc1-c1cc(=O)[nH]c(Nc2nc(C)c3cc(C)c(C)cc3n2)n1 [11746 + TFA]
MDBK line; [2]
  IC50: 14.4 µM
[1]; [3]
  IC50: 33.5 µM
[1]
  MTT Assay IC50(A431/MDBK): ratio in parentheses: 0.43
EGFR
  ICW Avg: 25.68
  ICW 1: 29.51
  ICW 2: 21.86

## Cc1cccc(Cc2c(C)nc(Nc3nc(C)c4cccc(C)c4n3)[nH]c2=O)c1 [11754 + TFA]
MDBK line; [2]
  IC50: 7.55 µM
[1]; [3]
  IC50: 5.58 µM
[1]
  MTT Assay IC50(A431/MDBK): ratio in parentheses: 1.35
EGFR
  ICW Avg: 29.97
  ICW 1: 34.09
  ICW 2: 25.85

## O=c1cc(C(F)(F)F)[nH]c(Nc2nc(-c3ccccc3)c3cc(Cl)ccc3n2)n1 [11759 + TFA]
MDBK line; [2]
  IC50: 7.36 µM
[1]; [3]
  IC50: 14.2 µM
[1]
  MTT Assay IC50(A431/MDBK): ratio in parentheses: 0.52
EGFR
  ICW Avg: 32.41
  ICW 1: 38.43
  ICW 2: 26.39

## CCc1ccc2c(C)nc(Nc3nc(C)c(CCC(C)C)c(=O)[nH]3)nc2c1 [11771 + TFA]
MDBK line; [2]
  IC50: 42.1 µM
[1]; [3]
  IC50: 18.2 µM
[1]
  MTT Assay IC50(A431/MDBK): ratio in parentheses: 2.32
EGFR
  ICW Avg: 46.95
  ICW 1: 51.58
  ICW 2: 42.32

## COc1cccc2c(C)nc(Nc3nc(C)cc(=O)[nH]3)nc12 [11772 + TFA]
MDBK line; [2]
  IC50: 9.04 µM
[1]; [3]
  IC50: 9.75 µM
[1]
  MTT Assay IC50(A431/MDBK): ratio in parentheses: 0.93
EGFR
  ICW Avg: 77.09
  ICW 1: 80.68
  ICW 2: 73.50

## CCCc1c(C)nc(Nc2nc(C)c3cccc(OC)c3n2)[nH]c1=O [11773 + TFA]
MDBK line; [2]
  IC50: 21 µM
[1]; [3]
  IC50: 39.4 µM
[1]
  MTT Assay IC50(A431/MDBK): ratio in parentheses: 0.53
EGFR
  ICW Avg: 33.52
  ICW 1: 43.74
  ICW 2: 23.30

## Cc1ccc2c(C)nc(Nc3nc(CCC(C)C)cc(=O)[nH]3)nc2c1 [11783 + TFA]
MDBK line; [2]
  IC50: 15 µM
[1]; [3]
  IC50: 18.2 µM
[1]
  MTT Assay IC50(A431/MDBK): ratio in parentheses: 0.82
EGFR
  ICW Avg: 60.19
  ICW 1: 66.95
  ICW 2: 53.44

## Cc1ccc2nc(Nc3nc(-c4ccccc4C)cc(=O)[nH]3)nc(C)c2c1 [11785 + TFA]
MDBK line; [2]
  IC50: 9.15 µM
MDBK line; follow-up MTT, second value, read-out: MTT Follow-up: MDBK
  IC50: 25.9 µM
[1]; [3]
  IC50: 10.3 µM
[1]; A-431, follow-up MTT, A431 cells, first value, read-out: MTT Follow-up: A431
  IC50: 24.8 µM
[1]; follow-up MTT, ratio MDBK/A431
  MTT Follow-up: ratio in parentheses: 1.04
[1]
  MTT Assay IC50(A431/MDBK): ratio in parentheses: 0.88
EGFR
  ICW Avg: 35.54
  ICW 1: 41.06
  ICW 2: 30.01

## Cc1ccc2nc(Nc3nc(CCC(C)C)cc(=O)[nH]3)nc(C)c2c1 [11795 + TFA]
MDBK line; [2]
  IC50: 12.9 µM
[1]; [3]
  IC50: 26.8 µM
[1]
  MTT Assay IC50(A431/MDBK): ratio in parentheses: 0.48
EGFR
  ICW Avg: 33.52
  ICW 1: 35.23
  ICW 2: 31.81

## COc1ccc(-c2cc(=O)[nH]c(Nc3nc(C)c4ccc(C)cc4n3)n2)cc1OC [11800 + TFA]
MDBK line; [2]
  IC50: 5.86 µM
[1]; [3]
  IC50: 6.71 µM
[1]
  MTT Assay IC50(A431/MDBK): ratio in parentheses: 0.87
EGFR
  ICW Avg: 33.14
  ICW 1: 34.26
  ICW 2: 32.02

## CC1(C)CC(=O)c2cnc(Nc3nc(-c4ccccc4)c4cc(Cl)ccc4n3)nc2C1 [11807 + TFA]
MDBK line; [2]
  IC50: 17.8 µM
[1]; [3]
  IC50: 5.31 µM
[1]
  MTT Assay IC50(A431/MDBK): ratio in parentheses: 3.35
EGFR
  ICW Avg: 25.37
  ICW 1: 30.73
  ICW 2: 20.02

Reference: patent publication US20140179681A1, “METHODS AND COMPOSITIONS OF TARGETED DRUG DEVELOPMENT” (priority 2010, published 2014)
